Results published in PMC8447932 (Chemical Science, 2021).

System: spontaneously hypertensive (SHR) male rats
Assay: Blood pressure in SHR rats after single PO administration
Assay type: in vivo, rat
Conditions: 3 mg kg−1 per os once

`COc1cc2nc(N3CCN(C(=O)C4CCCO4)CC3)nc(N)c2cc1OC` (centres unmarked) [compound 74, terazosin] was tested, and the “systolic BP lowering effect in comparison with the vehicle at 120 min” value (120 min time point) was “no statistically significant activity” and the “systolic BP decrease in comparison with corresponding vehicle groups” value (after 15 min and 60 min of treatment) was “significant systolic BP decrease”.
